Earlier results, collected in PMC5548178 (Pharmacotherapy, 2016).
Read-outs that look alike come from different tables or passages of the source.

Tests used:
[1] = reported variability in healthy volunteers
[2] = single-dose gemfibrozil 600 mg after 2 weeks of lopinavir 400 mg–ritonavir 100 mg twice daily; healthy volunteers

Row | SMILES | AUC (mean ± SD) [1] [ng·h/mL] | Substrate for the efflux transporter P-glycoprotein (P-glycoprotein (P-gp)) | Reduction in gemfibrozil exposure (AUC0-∞) [2] [%] | Mean change in triglyceride levels (triglyceride levels; HIV-infected patients receiving NNRTI-based cART) | Mean change in triglyceride levels (triglyceride levels; non–HIV-infected controls)
1 | CC(C)(Oc1ccc(C(=O)c2ccc(Cl)cc2)cc1)C(=O)O [fenofibric acid] | 92000 ± 26000 | not a substrate |  |  | 
2 | Cc1ccc(C)c(OCCCC(C)(C)C(=O)O)c1 [gemfibrozil] |  |  | 41 | –60.3% | –59.3%
